Assay results as given in ChEMBL document CHEMBL1201862, “PubChem BioAssay data set” (2004).
Where “and” joins values, the source holds several entries; their conditions need not be identical. Identical values can stand only once. Calls of active or inactive are those of the source.

Legend:
Cytochrome P450 3A4 = Cytochrome P450 3A4 (Homo sapiens, UniProt P08684);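 further: CYP3A4 tested as one member of a cytochrome P450 panel screen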
[1] = system: Streptococcus sp. 'group A'; experiment: Streptococcus pyogenes SK(-)GAS viability under kanamycin – luminescence, BacTiterGlo, confirmation, counter-screen for streptokinase expression inhibitor project, dose response (AID 1900); type: functional, organism-based
Streptokinase A = molecular target: T1, Streptokinase A (Streptococcus pyogenes serotype M1, UniProt P10520); experiment: viability-normalized secreted streptokinase activity reduction – plasminogen activation absorbance, OD405, dose response (AID 1914); type: functional, Streptococcus pyogenes M1 GAS;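 further: secreted streptokinase activity via plasminogen activation per viability signal from cell pellet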
T1 sequence (P10520 whole entry): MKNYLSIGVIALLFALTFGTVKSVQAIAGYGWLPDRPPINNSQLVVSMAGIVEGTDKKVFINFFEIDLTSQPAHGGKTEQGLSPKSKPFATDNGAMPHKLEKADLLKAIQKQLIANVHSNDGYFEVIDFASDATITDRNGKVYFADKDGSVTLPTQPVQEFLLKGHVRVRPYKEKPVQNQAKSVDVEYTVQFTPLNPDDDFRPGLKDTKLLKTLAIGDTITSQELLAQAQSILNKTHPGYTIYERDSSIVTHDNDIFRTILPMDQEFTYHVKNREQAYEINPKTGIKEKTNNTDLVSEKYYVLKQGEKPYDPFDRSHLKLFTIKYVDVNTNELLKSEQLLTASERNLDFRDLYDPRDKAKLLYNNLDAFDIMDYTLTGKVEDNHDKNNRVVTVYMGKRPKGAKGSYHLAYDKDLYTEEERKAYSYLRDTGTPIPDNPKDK

Streptococcus = experiment: GAS UMAA2166 growth inhibition – luminescence, BacTiterGlo, counter-screen for streptokinase expression inhibitor project, dose response (AID 1915); type: functional, organism-based;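 further: potency for reduction of bacterial viability or growth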
Cytochrome P450 2C9 = Cytochrome P450 2C9 (Homo sapiens, UniProt P11712)
Sequence of Cytochrome P450 2C9 (P11712 whole entry): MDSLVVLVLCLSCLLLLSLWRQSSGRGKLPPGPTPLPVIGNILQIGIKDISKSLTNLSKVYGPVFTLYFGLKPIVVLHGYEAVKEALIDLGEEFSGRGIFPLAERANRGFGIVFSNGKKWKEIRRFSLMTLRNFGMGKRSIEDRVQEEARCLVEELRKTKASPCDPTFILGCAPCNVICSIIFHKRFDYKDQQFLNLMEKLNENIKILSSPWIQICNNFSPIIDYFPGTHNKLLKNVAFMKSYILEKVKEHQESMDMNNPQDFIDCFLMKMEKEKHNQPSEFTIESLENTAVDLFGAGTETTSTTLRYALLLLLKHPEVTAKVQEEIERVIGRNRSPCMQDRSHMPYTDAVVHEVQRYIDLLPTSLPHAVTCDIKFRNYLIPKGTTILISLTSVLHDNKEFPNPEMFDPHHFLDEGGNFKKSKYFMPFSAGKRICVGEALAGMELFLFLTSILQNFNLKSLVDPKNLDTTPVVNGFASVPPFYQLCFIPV

Cytochrome P450 2C19 = Cytochrome P450 2C19 (Homo sapiens, UniProt P33261); experiment: Cytochrome panel assay with activity outcomes. Panel member name: p450-cyp2c19 Compounds with AC50 equal or less than 10 uM are considered active; type: functional
Sequence of Cytochrome P450 2C19 (P33261 whole entry): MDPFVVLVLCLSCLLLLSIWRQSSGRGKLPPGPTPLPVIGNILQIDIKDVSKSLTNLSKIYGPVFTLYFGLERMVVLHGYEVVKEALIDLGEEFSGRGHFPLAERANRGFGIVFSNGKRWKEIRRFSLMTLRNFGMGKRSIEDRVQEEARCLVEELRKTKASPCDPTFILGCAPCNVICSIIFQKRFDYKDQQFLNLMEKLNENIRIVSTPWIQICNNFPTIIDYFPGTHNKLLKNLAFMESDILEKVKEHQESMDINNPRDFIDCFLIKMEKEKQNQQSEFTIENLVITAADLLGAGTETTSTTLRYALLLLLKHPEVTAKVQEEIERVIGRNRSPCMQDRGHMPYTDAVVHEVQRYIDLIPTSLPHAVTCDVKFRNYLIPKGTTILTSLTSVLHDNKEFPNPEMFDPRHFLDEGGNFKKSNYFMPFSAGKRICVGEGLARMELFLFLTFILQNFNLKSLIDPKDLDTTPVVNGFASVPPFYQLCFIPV

INS1 = experiment: INS-1E survival protection against cytokine death – cell-based, luminescence, retest, dose response (AID 449756); type: functional; conditions: Rattus norvegicus;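 further: cell death triggered by IL-1 beta plus TNF-alpha plus IFN-gamma mixture; protective hits raise ATP signal compared with cytokine alone wells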
[2] = molecular target: T2, Rac GTPase-activating protein 1 (Homo sapiens, UniProt Q9H0H5); experiment: blockers of MgcRacGAP-driven Rac1 GTP hydrolysis – biochemical, ADP Hunter fluorescence, primary and confirmatory, confirmation (AID 624330); type: functional
T2 sequence (Q9H0H5 whole entry): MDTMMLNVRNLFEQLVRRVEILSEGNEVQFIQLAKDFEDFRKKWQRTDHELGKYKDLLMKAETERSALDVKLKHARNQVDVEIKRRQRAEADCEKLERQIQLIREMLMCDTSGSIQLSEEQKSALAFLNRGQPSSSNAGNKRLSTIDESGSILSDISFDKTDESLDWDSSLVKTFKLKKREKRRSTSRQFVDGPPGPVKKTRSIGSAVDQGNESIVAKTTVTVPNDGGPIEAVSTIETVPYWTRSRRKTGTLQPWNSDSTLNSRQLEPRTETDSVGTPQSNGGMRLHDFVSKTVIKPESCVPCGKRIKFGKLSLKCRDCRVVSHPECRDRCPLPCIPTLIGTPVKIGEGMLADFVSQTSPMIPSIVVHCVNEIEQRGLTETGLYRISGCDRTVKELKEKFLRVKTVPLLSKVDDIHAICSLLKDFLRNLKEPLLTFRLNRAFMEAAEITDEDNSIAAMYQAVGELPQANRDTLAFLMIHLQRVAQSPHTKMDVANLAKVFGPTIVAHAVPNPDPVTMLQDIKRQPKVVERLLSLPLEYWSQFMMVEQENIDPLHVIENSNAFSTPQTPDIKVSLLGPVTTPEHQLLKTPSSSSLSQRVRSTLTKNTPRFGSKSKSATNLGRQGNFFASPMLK

[3] = molecular target: T3, Corticotropin-releasing factor receptor 2/Corticotropin-releasing factor-binding protein (Homo sapiens, UniProt P24387+Q13324); experiment: activators of CRF receptor 2 with binding protein – uHTS hits, confirmation (AID 602473); type: functional; conditions: read-out: EC50_Mean
T3 sequence (Q13324 whole entry): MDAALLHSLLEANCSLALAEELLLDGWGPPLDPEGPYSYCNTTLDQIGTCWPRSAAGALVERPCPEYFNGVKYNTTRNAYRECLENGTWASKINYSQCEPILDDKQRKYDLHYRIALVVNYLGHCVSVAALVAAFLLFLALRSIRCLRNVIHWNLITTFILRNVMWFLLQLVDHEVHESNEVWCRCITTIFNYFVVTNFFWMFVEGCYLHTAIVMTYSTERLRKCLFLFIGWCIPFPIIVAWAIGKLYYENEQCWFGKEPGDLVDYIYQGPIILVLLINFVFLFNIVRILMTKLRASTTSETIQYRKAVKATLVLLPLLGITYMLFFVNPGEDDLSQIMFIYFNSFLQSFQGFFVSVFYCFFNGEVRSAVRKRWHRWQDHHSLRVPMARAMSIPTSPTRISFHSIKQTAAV
T3 sequence (P24387 whole entry): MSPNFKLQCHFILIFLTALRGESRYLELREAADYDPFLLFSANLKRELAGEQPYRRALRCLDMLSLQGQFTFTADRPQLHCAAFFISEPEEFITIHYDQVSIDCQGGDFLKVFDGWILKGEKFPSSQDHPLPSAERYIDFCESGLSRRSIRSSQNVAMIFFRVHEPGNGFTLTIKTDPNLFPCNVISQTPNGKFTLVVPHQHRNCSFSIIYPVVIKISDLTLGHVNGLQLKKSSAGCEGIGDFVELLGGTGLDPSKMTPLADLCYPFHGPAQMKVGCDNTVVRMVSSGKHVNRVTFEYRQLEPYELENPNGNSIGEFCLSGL

Cytochrome P450 2D6 = Cytochrome P450 2D6 (Homo sapiens, UniProt P10635);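 further: CYP2D6 member of a cytochrome P450 panel assay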
Sequence of Cytochrome P450 2D6 (P10635 whole entry): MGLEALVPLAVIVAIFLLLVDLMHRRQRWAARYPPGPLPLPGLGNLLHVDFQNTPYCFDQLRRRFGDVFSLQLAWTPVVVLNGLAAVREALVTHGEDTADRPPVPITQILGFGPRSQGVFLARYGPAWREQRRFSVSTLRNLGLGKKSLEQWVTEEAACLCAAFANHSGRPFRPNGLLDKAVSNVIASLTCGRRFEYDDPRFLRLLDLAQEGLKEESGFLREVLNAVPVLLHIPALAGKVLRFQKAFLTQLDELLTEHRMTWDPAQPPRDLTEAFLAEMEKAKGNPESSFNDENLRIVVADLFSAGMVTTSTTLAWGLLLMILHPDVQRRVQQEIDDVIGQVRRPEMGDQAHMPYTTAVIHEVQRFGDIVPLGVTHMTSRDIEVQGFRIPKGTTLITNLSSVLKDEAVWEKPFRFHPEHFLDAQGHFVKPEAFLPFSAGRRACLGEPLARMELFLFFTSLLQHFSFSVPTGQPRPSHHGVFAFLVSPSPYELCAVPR

Sequence of Cytochrome P450 3A4 (P08684 whole entry): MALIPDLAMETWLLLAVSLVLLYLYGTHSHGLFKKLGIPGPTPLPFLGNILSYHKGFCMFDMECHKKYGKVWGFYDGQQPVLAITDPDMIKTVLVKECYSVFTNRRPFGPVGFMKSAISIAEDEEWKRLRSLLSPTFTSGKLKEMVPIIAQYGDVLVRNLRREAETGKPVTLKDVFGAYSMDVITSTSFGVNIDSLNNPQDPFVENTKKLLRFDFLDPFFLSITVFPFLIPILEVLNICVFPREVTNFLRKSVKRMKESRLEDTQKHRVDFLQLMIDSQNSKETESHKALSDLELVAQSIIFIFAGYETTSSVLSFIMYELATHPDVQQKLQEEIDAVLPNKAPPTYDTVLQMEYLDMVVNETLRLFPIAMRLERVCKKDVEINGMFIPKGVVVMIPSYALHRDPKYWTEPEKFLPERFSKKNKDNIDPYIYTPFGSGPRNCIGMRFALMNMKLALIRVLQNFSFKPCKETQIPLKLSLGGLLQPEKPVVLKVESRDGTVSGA

For `CCCC[P+](CCCC)(CCCC)Cc1ccc(NC(=O)[C@@H](Cc2ccc3ccccc3c2)N=C(NC2CCCCC2)NC2CCCCC2)cc1`, the AC50 (Cytochrome P450 3A4) was 25.1 µM (inconclusive).
`CCCCNC(=O)c1onc(CSc2ccc(C(C)C)cc2)c1C(=O)O` was tested, and the EC50 [1] was 3.81 µM (active), the EC50 (Streptokinase A) was 2.28 µM (active) and the EC50 (Streptococcus) was > 150 µM (not active).
In the case of `COc1ccc2[nH]cc(CCNc3ccnc(-c4ccoc4)n3)c2c1`, the AC50 (Cytochrome P450 2C9) is reported as 0.794 µM (inconclusive).
In the case of `O=c1[nH]c(=S)[nH]nc1Cc1ccccc1`, the AC50 (Cytochrome P450 2C19) is reported as “inconclusive” and the AC50 (Cytochrome P450 2C9) is reported as 39.8 µM (inconclusive).
`O=C(CSc1nnc(NC(=O)c2cccc(F)c2)s1)NCC1CCCO1` (stereo not given) was tested, and the EC50 [1] was > 150 µM (not active), the EC50 (Streptokinase A) was > 150 µM (not active) and the EC50 (Streptococcus) was > 150 µM (not active).
`COc1ccc(C2/C=C\CN(C(=O)C3CC3)[C@H](Cc3ccccc3)C(=O)N2Cc2ccc(F)cc2)cc1` (stereo not given in full) was tested, and the AC50 (INS1) was 13.5 µM (active).
`CN=C(S)NNC(=O)c1sccc1OCc1ccc(C)cc1` was tested, and the AC50 (Cytochrome P450 3A4) was 15.8 µM (inconclusive).
`O=C(Nc1nc(-c2ccccc2)cs1)c1ccc(Br)o1` was tested, and the AC50 (Cytochrome P450 3A4) was 31.6 µM (inconclusive) and the AC50 (Cytochrome P450 2C9) was 11.2 µM (inconclusive).
In the case of `CCOP(=O)(Cc1ccc(C(=O)CC)o1)OCC`, the EC50 [1] is reported as > 150 µM (not active), the EC50 (Streptokinase A) is reported as > 150 µM (not active) and the EC50 (Streptococcus) is reported as > 150 µM (not active).
With `CC(=O)Nc1ccc(N2C(=O)CSC2c2c(F)cccc2Cl)cc1` (stereo not given) the AC50 (Cytochrome P450 2C19; read-out: AC50) was 39.8 µM (inconclusive) and the AC50 (Cytochrome P450 3A4) was 22.4 µM (inconclusive).
For `CCCCNC(=O)C(=O)NC(C)CCc1ccccc1` (stereo not given), the AC50 (Cytochrome P450 2C9) was 17.8 µM (inconclusive).
`COc1cccc([C@@H]2Oc3ccc(Br)cc3C(=O)[C@H]2O)c1` was tested, and the AC50 (Cytochrome P450 3A4) was 6.31 µM (inconclusive).
In the case of `CCOC(=O)c1c(-c2ccc(C)o2)csc1NC(=O)COC(=O)c1ccc(NC(N)=O)cc1`, the EC50 [1] is reported as 1.75 µM (active), the EC50 (Streptokinase A) is reported as 49.5 µM (active) and the EC50 (Streptococcus) is reported as 68 µM (active).
For `Cc1ccc(NCc2ccco2)cc1C`, the IC50 [2] was 123 µM (active).
For `COc1cc(C[C@H](C)N)c(OC)cc1I`, the AC50 (Cytochrome P450 3A4) was 1.58 µM (inconclusive) and 31.6 µM (inconclusive).
With `CCc1cc2c(COC(=O)c3cccc(NS(C)(=O)=O)c3)cc(=O)oc2cc1O` the EC50 [1] was 6.8 µM (active), the EC50 (Streptokinase A) was > 150 µM (not active) and the EC50 (Streptococcus) was 100 µM (active).
With `CCCn1nc2cc(C(=O)NCCc3ccc(C)cc3)ccc2c1OCC` the AC50 (Cytochrome P450 2C9) was 39.8 µM (inconclusive).
With `CCOC(=O)C1CCCN(c2ncnc3c2cnn3-c2ccc(Cl)cc2)C1` (stereo not given) the EC50 [3] was > 53 µM (inactive), the AC50 (Cytochrome P450 2C19; read-out: AC50) was 22.4 µM (inconclusive) and the AC50 (Cytochrome P450 3A4) was 25.1 µM (inconclusive).
For `O=C1NC(=O)/C(=C\c2ccc(OCc3ccccc3)cc2)S1`, the EC50 [1] was 52.8 µM (active), the EC50 (Streptokinase A) was > 50 µM (not active) and the EC50 (Streptococcus) was > 150 µM (not active).
For `Cc1ccc(S(=O)(=O)N2CCCCC2)cc1NC(=O)CN1C(=O)CN(C)C1=O`, the EC50 [1] was > 150 µM (not active), the EC50 (Streptokinase A) was > 150 µM (not active) and the EC50 (Streptococcus) was > 150 µM (not active).
With `Cc1cc(N)ccc1NC(=O)c1ccccc1` the AC50 (Cytochrome P450 2C19; read-out: AC50) was 20 µM (inconclusive) and the AC50 (Cytochrome P450 2C9) was 0.0224 µM (inconclusive).
In the case of `CN(C)C(=O)c1ccc(-c2cncnc2-n2ccnc2)cc1`, the AC50 (Cytochrome P450 3A4) is reported as 10 µM (inconclusive) and the AC50 (Cytochrome P450 2D6) is reported as 25.1 µM (inconclusive).
In the case of `COc1ccc(-c2nc3cnc(OC)nc3n(Cc3cccs3)c2=O)cc1`, the AC50 (Cytochrome P450 2D6) is reported as 7.94 µM (inconclusive) and the AC50 (Cytochrome P450 2C9) is reported as 5.01 µM (inconclusive).
